Assay: Human HepG2 cell viability assay in 384 well format
Type: toxicity, cell-based
Set-up: dose 125 nL, time 70.5 hour; cytotoxicity at 70.5 h: concentration not given beside the values
Conditions: HepG2 cells, read-out: Inhibition

## CC(C)CNC(=O)CNC(=O)NCC(O)c1ccc2ccccc2c1 (stereo unspecified)
  cytotoxicity at 70.5 h: -3.3%

## O=C(O)CN1CCC(c2ccccc2)CC1
  cytotoxicity at 70.5 h: -3.19%

## CNC(=O)C(NC(=O)CCc1cccc(OC2CCCC2)c1)C(C)C (stereo unspecified)
  cytotoxicity at 70.5 h: 6.19%

## CCn1cc(S(=O)(=O)N2CCC(C)Sc3ccccc32)cn1 (stereo unspecified)
  cytotoxicity at 70.5 h: -1.33%

## CCn1cc(S(=O)(=O)N2CCCSc3ccccc32)cn1
  cytotoxicity at 70.5 h: -7.44%

## CCC(=O)NC1CCCN(Cn2nc(C(C)(C)C)ccc2=O)C1 (stereo unspecified)
  cytotoxicity at 70.5 h: -4.43%

## Cc1ccc(N(C)Cc2nnnn2C2CC2)c(C)c1
  cytotoxicity at 70.5 h: -5.96%

## CC(C)c1ccc(CNC(C)c2ccc(S(=O)(=O)N(C)C)cc2)cc1 (stereo unspecified)
  cytotoxicity at 70.5 h: -2.78%

## CCOCC1CCN(C(=O)c2sc(C)cc2OC(F)F)CC1
  cytotoxicity at 70.5 h: -5.96%

## COc1ccccc1C1(CNCc2cccc(O)c2)CCOCC1
  cytotoxicity at 70.5 h: -2.11%

## O=C(c1ccncc1)N(CCO)Cc1cc(Br)ccc1F
  cytotoxicity at 70.5 h: -10.4%

## COc1ccccc1C1(CNCc2cccc(C#N)c2)CCOCC1
  cytotoxicity at 70.5 h: -9.16%

## Cc1cc(C)cc(OCCCn2nc3ccccn3c2=O)c1
  cytotoxicity at 70.5 h: -13.4%

## O=C(NCCC(=O)N1CCCC1)c1cccnc1
  cytotoxicity at 70.5 h: 17.4%

## Cc1ccc(OCCSCCn2nc3ccccn3c2=O)cc1
  cytotoxicity at 70.5 h: -10.4%

## COc1cccc(CNCCNS(=O)(=O)Cc2ccccc2)c1
  cytotoxicity at 70.5 h: -6.4%

## COCCC(Cc1cccc(Br)c1)C(N)=O (stereo unspecified)
  cytotoxicity at 70.5 h: -7.63%

## CC(C)CC(Cc1cccc(Br)c1)C(=O)O (stereo unspecified)
  cytotoxicity at 70.5 h: 22.2%

## CCCNC(=O)CNc1ccccc1OCCC(=O)OC
  cytotoxicity at 70.5 h: -7.23%

## CC1CCC(NC(=O)NCC(C)(C)CCS(C)(=O)=O)CC1 (stereo unspecified)
  cytotoxicity at 70.5 h: -4.98%

## CNC(=O)CN(C(=O)c1ccc(SC)o1)c1cccc(F)c1
  cytotoxicity at 70.5 h: -0.365%

## CCCN1CCCN(S(=O)(=O)c2cnc3onc(C)c3c2)CC1
  cytotoxicity at 70.5 h: 2.21%

## O=c1[nH]c2csnc2c(=O)n1Cc1ccc(Br)cc1
  cytotoxicity at 70.5 h: -10.2%

## CN(C)c1nc(CNC(=O)N[C@H](CO)c2ccccc2)cs1
  cytotoxicity at 70.5 h: 30.7%

## CCN(Cc1ccc(Cl)c(Cl)c1)C(=O)CCn1cncn1
  cytotoxicity at 70.5 h: -10.7%

## Cc1cccc2nc(CNCc3cccc4c3OCCCO4)cn12
  cytotoxicity at 70.5 h: -0.513%

## Cc1noc(C)c1Cc1nc(N(C)C)no1
  cytotoxicity at 70.5 h: -12.3%

## CC(C)OCCSCCn1nc2ccccn2c1=O
  cytotoxicity at 70.5 h: -12.9%

## Cc1cc(C(=O)N2CCCN(c3nccs3)CC2)c(C)n1C(C)C
  cytotoxicity at 70.5 h: 29.5%

## COCCN(c1ccncc1)S(=O)(=O)c1cc(C)c(F)cc1F
  cytotoxicity at 70.5 h: 15.9%

## CC(C)OCCN(C)CC(c1cccs1)N1CCOCC1 (stereo unspecified)
  cytotoxicity at 70.5 h: 29.2%

## N#Cc1cc(F)c(NCCc2ccc(S(N)(=O)=O)cc2)c(F)c1
  cytotoxicity at 70.5 h: -2.35%

## CN(C)c1ncc(CNC(=O)Nc2ccccc2F)n1C
  cytotoxicity at 70.5 h: -1.14%

## CC(O)(CNc1ccccn1)c1ccccc1 (stereo unspecified)
  cytotoxicity at 70.5 h: 19.5%

## COc1cccc(C(=O)NC(C)CCN2CCOCC2)c1F (stereo unspecified)
  cytotoxicity at 70.5 h: -5.81%

## CCS(=O)(=O)c1ccc(CNc2c(Cl)cccc2C#N)cc1
  cytotoxicity at 70.5 h: -1.09%

## CN(C1CCCC1)C(C)(C)C(=O)NCCNC(N)=O
  cytotoxicity at 70.5 h: -0.603%

## O=C(CCc1ccccc1)N1CCCCC1C1OCCO1 (stereo unspecified)
  cytotoxicity at 70.5 h: -3.98%

## COc1cccc(CSCC(=O)NCc2cccnc2)c1
  cytotoxicity at 70.5 h: -3.51%

## CC1CN(C(=O)NCCn2ccnc2)CCO1 (stereo unspecified)
  cytotoxicity at 70.5 h: -1.49%

## O=C(CCN1CCSCC1c1ccccc1)N1CCOCC1 (stereo unspecified)
  cytotoxicity at 70.5 h: 7.46%

## Cc1nccc(CNS(=O)(=O)N(C)Cc2ccc(Cl)cc2)n1
  cytotoxicity at 70.5 h: 8.78%

## O=C1CC(NS(=O)(=O)N2CCOCC2)CN1Cc1ccccc1 (stereo unspecified)
  cytotoxicity at 70.5 h: -5.68%

## CN(C)C(=O)c1cccc(NC(=O)N2CCCC(C(F)(F)F)C2)c1 (stereo unspecified)
  cytotoxicity at 70.5 h: -8.44%

## O=C(CN1CCCNC1=O)Nc1ccccc1SC(F)(F)F
  cytotoxicity at 70.5 h: 21.5%

## c1ccc2nc(N3CCCC(Cn4cncn4)C3)cnc2c1 (stereo unspecified)
  cytotoxicity at 70.5 h: -1.5%

## O=C(NCC[S+]([O-])c1ccccc1)NCC(F)(F)F (stereo unspecified)
  cytotoxicity at 70.5 h: -7.27%

## CCN(c1ccc(C(=O)NCc2cc[nH]n2)cc1)C(C)C
  cytotoxicity at 70.5 h: 22.1%

## CC(C)(O)CNc1ccc(C#N)c(C(F)(F)F)c1
  cytotoxicity at 70.5 h: -1.99%

## O=C(CN1CCCNC1=O)Nc1ccccc1C(=O)C1CCCC1
  cytotoxicity at 70.5 h: -0.928%

## Cc1cc(CCC(=O)N2CCC(O)CC2)ccc1Br
  cytotoxicity at 70.5 h: -0.947%

## CN(CC(F)F)C(=O)c1cn(-c2ccc(Br)cc2)cn1
  cytotoxicity at 70.5 h: 3.66%

## CSC(C)(C)CNC(=O)NCC[S+]([O-])c1ccccc1 (stereo unspecified)
  cytotoxicity at 70.5 h: -6.22%

## CC(C)c1nc(CNc2ccc(CCO)cc2)cs1
  cytotoxicity at 70.5 h: 25.6%

## CCN(C(=O)CN(CC(N)=O)C(C)C)C1=CCCC1
  cytotoxicity at 70.5 h: 22.8%

## Cc1cc(Br)cnc1NCCN1CCC(N(C)C)CC1
  cytotoxicity at 70.5 h: -4.2%

## CCc1nc(CNCC2(C(N)=O)CCOCC2)cs1
  cytotoxicity at 70.5 h: -4.76%

## COC1CCN(CCNc2ncc(Br)cc2C)CC1
  cytotoxicity at 70.5 h: -1.86%

## Cc1nn(C)c(Oc2cccnc2)c1NC(=O)C1CCCO1 (stereo unspecified)
  cytotoxicity at 70.5 h: -3.71%

## CC(Cn1cccn1)NCc1csc(-c2ccc3c(c2)OCO3)n1 (stereo unspecified)
  cytotoxicity at 70.5 h: -5.39%

## Cc1nn(C)c(Oc2cccc(F)c2)c1NC(=O)C1CCOCC1
  cytotoxicity at 70.5 h: -14.1%

## CC(Cn1cccn1)NCc1nc(-c2ccc3c(c2)OCO3)no1 (stereo unspecified)
  cytotoxicity at 70.5 h: 13%

## O=C(Nc1ncn(Cc2cccc(Br)c2)n1)C1CCC1
  cytotoxicity at 70.5 h: -13.9%

## O=C(NCc1nnc2n1CCC2)N1CCC2(CCCCC2)CC1
  cytotoxicity at 70.5 h: -12.2%

## CCc1nc(CC(=O)NCC2(C(N)=O)CCOCC2)cs1
  cytotoxicity at 70.5 h: -6.76%

## CN(CC(=O)N(C)C1CCCCC1)Cc1nc2ccccc2c(=O)[nH]1
  cytotoxicity at 70.5 h: -6.53%

## CCN(CC)c1ccc(CNS(=O)(=O)C2CCOCC2)cc1F
  cytotoxicity at 70.5 h: -10.6%

## CS(=O)(=O)Cc1nc(CN2CCC(C(F)(F)F)CC2)cs1
  cytotoxicity at 70.5 h: -8.36%

## CS(=O)(=O)Cc1nc(CN2CC=C(c3ccccc3)CC2)cs1
  cytotoxicity at 70.5 h: -10.5%

## Cc1ccccc1NS(=O)(=O)c1ccc(C(=O)O)cc1F
  cytotoxicity at 70.5 h: -2.98%

## O=C1NC2(Nc3ncccc31)C(=O)Nc1c2ccc(Cl)c1F (stereo unspecified)
  cytotoxicity at 70.5 h: -6.95%

## CNC(=O)Cc1noc(Cc2cccc(Cl)c2)n1
  cytotoxicity at 70.5 h: -12.1%

## Cn1cc(NC(=O)c2ccccn2)cc(Br)c1=O
  cytotoxicity at 70.5 h: -4.48%

## Cc1cc(=O)c(C(=O)N(C)Cc2ccc(Cl)c(F)c2)c[nH]1
  cytotoxicity at 70.5 h: -1.6%

## Cc1csc(N2CCC(NCC3(O)CCc4ccccc43)CC2)n1 (stereo unspecified)
  cytotoxicity at 70.5 h: -7.31%

## CC(C1CC1)N(C)C(=O)CCn1cccn1 (stereo unspecified)
  cytotoxicity at 70.5 h: 8.62%

## CN(CC(=O)N(C)C1CCCCC1)Cc1nc2c(cnn2C)c(=O)[nH]1
  cytotoxicity at 70.5 h: 8.15%

## OC1(CNC2CCN(Cc3ccncc3)CC2)CCc2ccccc21 (stereo unspecified)
  cytotoxicity at 70.5 h: -5.39%

## CC(NCCCC#N)c1ccc(S(C)(=O)=O)c(F)c1 (stereo unspecified)
  cytotoxicity at 70.5 h: 9.59%

## Cc1nc(CN2C[C@@H]3CN(C(=O)CC(F)(F)F)C[C@@H]3C2=O)cs1
  cytotoxicity at 70.5 h: -9.18%

## CN(C)C(C)(C)CNCc1cn(C)nc1-c1cccnc1
  cytotoxicity at 70.5 h: 17.8%

## COc1ccc(CNc2c(C)nn(C(C)C)c2C)cc1OC
  cytotoxicity at 70.5 h: -2.06%

## CC(NCc1cccc(C#N)c1)c1ccccn1 (stereo unspecified)
  cytotoxicity at 70.5 h: -6.12%

## COc1cc(CNC(C)Cn2cccn2)cc2c1OCO2 (stereo unspecified)
  cytotoxicity at 70.5 h: -9.7%

## Cc1nc(CN2C[C@@H]3CN(C(=O)NC(C)C)C[C@@H]3C2=O)cs1
  cytotoxicity at 70.5 h: -5.1%

## O=C(NC1CCCC1)[C@H]1C[C@H]2OCC[C@H]2N(Cc2ccoc2)C1
  cytotoxicity at 70.5 h: -4.07%

Reference: ChEMBL document CHEMBL3507680, “University of Dundee, Gates Library screen for HepG2 cell viability”
